What was measured:
[1] = test system: complement serum (guinea pig complement); test: Anticomplementary activity (inhibition of complement hemolysis of sensitized erythrocytes); format: biochemical; conditions: concentration inhibiting hemolysis of sensitized erythrocytes by 50%, 37° C., OD541
Method: The anticomplementary activity of the test compound was measured according to the test method as described in Experimental Immunochemistry, edited by E. A. Kabat and M. M. Mayer, 2nd ed., Springfield, III: C. C. Thomas (1961) pages 133-240.
A mixture of 1 ml of a 5-fold diluted solution of a Veronal buffer solution containing 1.5×10^-4 M Ca^2+ and 5×10^-4 M Mg^2+ and isotonic gelatin, 1.5 ml of complement serum (guinea pig complement) diluted 400 times with a physiological saline solution and 0.05 ml of a solution of a test compound (in this case, a test compound was dissolved in a physiological saline solution) was incubated at 37° C. for 30 minutes. To the said mixture there was added 0.4 ml of sensitized erythrocytes suspension containing 5×10^8 cells/ml and said mixture was incubated at 37° C. further for 60 minutes. After the incubation, the mixture was centrifuged in 3,000 rpm at 4° C. for 10 minutes.
The results are expressed in Table 1 as the concentration of each drugs inhibiting the hemolysis activity by 50% (IC50).

[2] = test system: blood clot from diluted fresh rabbit blood (urokinase, bovine thrombin); test: Fibrinolytic activity (modified diluted whole blood clot lysis time method); format: biochemical; conditions: test compound 300 μg/ml; time for complete lysis of diluted rabbit blood clot with urokinase, 37° C.
Method: The enhancement of the fibrinolytic activity of the test compounds was measured according to the modified diluted whole blood clot lysis time method described in
G. R. Fearnley, G. V. Balmforth, E. Fearnley: Clin. Sci. 16, 645-650 (1957) I. S. Chohan et al: Thrombos. Diathes. Haemorrh. 33, 226 (1975) and I. M. Nilsson et al: Handbook of Experimental Pharmacology 46, 110.
Fresh rabbit blood was diluted 20 times with 1/15M phosphate buffer (pH 7.4). A mixture of 400 μl of the diluted blood solution and 50 μl of a test compound (300 μg/ml) was incubated at 37° C. for 30 minutes. To the mixture were added 50 μl of urokinase solution (100 IU/ml) and 50 μl of bovine thrombin (100 N.I.H. u/ml). The clot produced in tubes was incubated at 37° C. for various periods of time. At the end of each incubation interval (15 minutes interval), 2.5 ml of distilled water was added to lyse erythrocytes released from clotted blood and absorbance (OD541) of the supernatant separated by centrifugation (3,000 rpm for 10 minutes) from the reaction mixture was measured. The fibrinolytic activity of the test compound was determined by the time in minutes needed for the complete lysis of the blood clot.
In the absence of a test compound, it took more than 2 hours to lyse blood clot in the above condition. However, blood clot was lysed in the presence of test compounds after 15 minutes (symbol: ++) and 45 minutes (symbol: +) incubation, respectively. Samples which were incapable of lysing blood clot within 1 hour incubation were expressed as symbol (-).

| Structure (SMILES) | Anticomplementary activity (IC50) [1] [µg/mL] | Fibrinolytic activity [2] |
| --- | --- | --- |
| CCCCCCCCCCCCCCCC(=O)OC(CCCCCCCCCCCCCCC)CC(=O)N[C@@H](CCC(=O)O)C(=O)N[C@H](C(=O)O)[C@@H](C)O (stereo partly drawn) [Example 39, N-[N-(3-hexadecanoyloxyoctadecanoyl)-L-glutamyl]-L-threonine] | 1.67 | – |
| Br.Br.CCCCCCCCCCCCCCCC(=O)OC(CCCCCCCCCCCCCCC)CC(=O)N[C@@H](CCCCN)C(=O)N[C@@H](CCCCN)C(=O)O (stereo partly drawn) [Example 36, N-[N-(3-hexadecanoyloxyoctadecanoyl)-L-lysyl]-L-lysine dihydrogen bromide] | 9.5 | – |
| CCCCCCCCCCCCCCCC(=O)OC(CCCCCCCCCCCCCCC)CC(=O)N[C@@H](CCC(=O)O)C(=O)N[C@@H](CCC(=O)O)C(=O)O (stereo partly drawn) [19 (2), N-[N-(3-hexadecanoyloxyoctadecanoyl)-L-glutamyl]-L-glutamic acid] | 5.28 | – |
| CCCCCCCCCCCCCCCC(=O)OC(CCCCCCCCCCCCCCC)CC(=O)N[C@H](C(=O)NCCS(=O)(=O)O)C(C)C (stereo partly drawn) [Example 37, N-[N-(3-hexadecanoyloxyoctadecanoyl)-L-valyl]taurine] | 0.13 | + (45 minutes (symbol: +) incubation) |
| CCCCCCCCCCCCCCCC(=O)OC(CCCCCCCCCCCCCCC)CC(=O)NCCC(=O)N[C@@H](CC(=O)O)C(=O)O (stereo partly drawn) [Example 18, N-[N-(3-hexadecanoyloxyoctadecanoyl)-β-alanyl]-L-aspartic acid] | 0.34 | – |
| CCCCCCCCCCCCCCCC(=O)OC(CCCCCCCCCCCCCC)C(=O)N[C@H](C(=O)N[C@@H](CCC(=O)O)C(=O)O)C(C)C (stereo partly drawn) [Example 6, N-[N-(2-hexadecanoyloxyhexadecanoyl)-L-valyl]-L-glutamic acid] | 0.49 | + (45 minutes (symbol: +) incubation) |
| CCCCCCCCCCCCCCCC(=O)OC(CCCCCCCCCCCCCCC)CC(=O)N[C@H](C(=O)N[C@@H](CCC(=O)O)C(=O)O)[C@@H](C)O (stereo partly drawn) [Example 8 (2), N-[N-(3-hexadecanoyloxyoctadecanoyl)-L-threonyl]-L-glutamic acid] | 0.67 | ++ (blood clot was lysed in the presence of test compounds after 15 minutes (symbol: ++)) |
| CCCCCCCCCCCCCCCC(=O)OC(CCCCCCCCCCCCCCC)CC(=O)NCCCCC(=O)N[C@@H](CCC(=O)O)C(=O)O (stereo partly drawn) [Example 14, N-[N-(3-hexadecanoyloxyoctadecanoyl)-5-aminopentanoyl]-L-glutamic acid] | 0.52 | – |
| CCCCCCCCCCCCCCCC(=O)OC(CCCCCCCCCCCCCCC)CC(=O)N[C@@H](CCCCN)C(=O)N[C@@H](CCC(=O)O)C(=O)O (stereo partly drawn) [Example 21, N-[N-(3-hexadecanoyloxyoctadecanoyl)-L-lysyl]-L-glutamic acid] | – | + (45 minutes (symbol: +) incubation) |
| CCCCCCCCCCCCCCCC(=O)OC(CCCCCCCCCCCCCCC)CC(=O)NCCC(=O)N[C@H](C(=O)N[C@@H](CCC(=O)O)C(=O)O)[C@@H](C)O (stereo partly drawn) [Example 10, N-[N-[N-(3-hexadecanoyloxyoctadecanoyl)-β-alanyl]-L-threonyl]-L-glutamic acid] | 1.00 | + (45 minutes (symbol: +) incubation) |
| CCCCCCCCC=CCCCCCCCC(=O)OC(CCCCCCCC=CCCCCCCCC)CC(=O)N[C@H](C(=O)N[C@@H](CCC(=O)O)C(=O)O)C(C)C (stereo partly drawn) [Example 7, N-[N-[3-(9-octadecenoyloxy)-11-eicosenoyl]-L-valyl]-L-glutamic acid] | 3.4 | + (45 minutes (symbol: +) incubation) |
| CCCCCCCCCCCCCCCC(=O)OC(CCCCCCCCCCCCCCC)CC(=O)N[C@H](C(=O)N[C@H](C(=O)O)[C@@H](C)O)[C@@H](C)O (stereo partly drawn) [Example 42, N-[N-(3-hexadecanoyloxyoctadecanoyl)-L-threonyl]-L-threonine] | 0.06 | ++ (blood clot was lysed in the presence of test compounds after 15 minutes (symbol: ++)) |
| CCCCCCCCCCCCCCCC(=O)OC(CCCCCCCCCCCCCCC)CC(=O)N[C@H](C(=O)N[C@@H](CCC(=O)OC)C(=O)OC)[C@@H](C)O (stereo partly drawn) [Example 43, dimethyl N-[N-(3-hexadecanoyloxyoctadecanoyl)-L-threonyl]-L-glutamate] | 30 | – |
| CCCCCCCCCCCCCCCC(=O)OC(CCCCCCCCCCCCCCC)CC(=O)N[C@H](C(=O)N[C@@H](CCC(=O)O)C(=O)O)C(C)C (stereo partly drawn) [Example 3, N-[N-(3-hexadecanoyloxyoctadecanoyl)-L-valyl]-L-glutamic acid] | 1.89 | ++ (blood clot was lysed in the presence of test compounds after 15 minutes (symbol: ++)) |

From patent US4643990A, “N-acyl peptide, processes for their preparation and pharmaceutical compositions thereof” (Fujisawa Pharmaceutical Co., Ltd., priority 1982, dated 1987)
